In ChEMBL document CHEMBL3596147, “Synthesis and antitumor activity of 5-(5-halogenated-2-oxo-1H-pyrrolo[2,3-b]pyridin-(3Z)-ylidenemethyl)-2,4-dimethyl-1H-pyrrole-3-carboxamides” (Bioorg Med Chem Lett, 2015):
pIC50: −log10 of the molar value.

Tests used:
MCF7 [1] = test: Cytotoxicity against human MCF7 cells assessed as inhibition of cell viability at 30 uM after 48 hrs by SRB assay; format: functional; conditions: MCF7, 48 h
HepG2 = test: Cytotoxicity against human HepG2 cells assessed as inhibition of cell viability after 48 hrs by SRB assay; format: functional, cell-based; conditions: HepG2, 48 h
HT-29 = test: Cytotoxicity against human HT-29 cells assessed as inhibition of cell viability after 48 hrs by SRB assay; format: functional, cell-based; conditions: HT-29, 48 h
MCF7 [2] = test: Cytotoxicity against human MCF7 cells assessed as inhibition of cell viability after 48 hrs by SRB assay; format: functional, cell-based; conditions: MCF7, 48 h
A549 = test: Cytotoxicity against human A549 cells assessed as inhibition of cell viability after 48 hrs by SRB assay; format: functional, cell-based; conditions: A549, 48 h
[3] = Cytotoxicity against human PANC1 cells assessed as inhibition of cell viability after 48 hrs by SRB assay; format: functional, cell-based; conditions: PANC-1, 48 h
HeLa = test: Cytotoxicity against human HeLa cells assessed as inhibition of cell viability after 48 hrs by SRB assay; format: functional, cell-based
SK-OV-3 = test: Cytotoxicity against human SKOV3 cells assessed as inhibition of cell viability after 48 hrs by SRB assay; format: functional, cell-based; conditions: SK-OV-3, 48 h

For `Cc1[nH]c(/C=C2\C(=O)Nc3ncc(Cl)cc32)c(C)c1C(=O)NCCN(C)C`, which inhibition at 30 µM (MCF7 [1]) is on record?
Its inhibition at 30 µM is 45.7%.

With `Cc1[nH]c(/C=C2\C(=O)Nc3ncc(F)cc32)c(C)c1C(=O)NCCN(C)C` as the compound, how does the inhibition at 30 µM (MCF7 [1]) read?
The inhibition at 30 µM was 61.1%.

For `Cc1[nH]c(/C=C2\C(=O)Nc3ncc(F)cc32)c(C)c1C(=O)O`, which inhibition at 30 µM (MCF7 [1]) is on record?
Its inhibition at 30 µM is 20.5%.

With `CCN(CC)CCNC(=O)c1c(C)[nH]c(/C=C2\C(=O)Nc3ncc(Cl)cc32)c1C` as the compound, how does the pIC50 (HepG2) read?
The pIC50 was 4.91.

And the pIC50 (HT-29)?
The pIC50 was 5.16.

What about the pIC50 (MCF7 [2]) of the same compound?
Its pIC50 is 4.58.

What about the pIC50 (A549) of the same compound?
The pIC50 was 4.99.

What about the pIC50 [3] of the same compound?
Its pIC50 is 4.85.

What about the inhibition at 30 µM (MCF7 [1]) of the same compound?
The inhibition at 30 µM was 88.9%.

What about the pIC50 (HeLa) of the same compound?
The pIC50 was 4.53.

And the pIC50 (SK-OV-3)?
The pIC50 was 5.08.

Which inhibition at 30 µM (MCF7 [1]) does the source give for `Cc1[nH]c(/C=C2\C(=O)Nc3ncc(F)cc32)c(C)c1C(=O)NCCN1CCCC1` here?
The inhibition at 30 µM was 37.5%.

What does the source list for `Cc1[nH]c(/C=C2\C(=O)Nc3ncc(Br)cc32)c(C)c1C(=O)NCCN(C)C`?
pIC50 (HepG2): 5.18; pIC50 (HT-29): 5.30; pIC50 (MCF7 [2]): 4.85; pIC50 (A549): 5.34; pIC50 [3]: 4.94; inhibition at 30 µM (MCF7 [1]): 79.4%; pIC50 (HeLa): 4.75; pIC50 (SK-OV-3): 5.30

With `CCN(CC)CCNC(=O)c1c(C)[nH]c(/C=C2\C(=O)Nc3ccc(F)cc32)c1C` [SUNITINIB] as the compound, how does the pIC50 (HepG2) read?
Its pIC50 is 4.79.

And the pIC50 (HT-29)?
Its pIC50 is 5.33.

And the pIC50 (MCF7 [2])?
The pIC50 was 4.59.

What about the pIC50 (A549) of the same compound?
The pIC50 was 5.10.

What about the pIC50 [3] of the same compound?
The pIC50 was 4.83.

What about the inhibition at 30 µM (MCF7 [1]) of the same compound?
Its inhibition at 30 µM is 94%.

What about the pIC50 (HeLa) of the same compound?
The pIC50 was < 4.52.

What about the pIC50 (SK-OV-3) of the same compound?
Its pIC50 is 5.04.

For `Cc1[nH]c(/C=C2\C(=O)Nc3ncc(Br)cc32)c(C)c1C(=O)O`, which inhibition at 30 µM (MCF7 [1]) is on record?
Its inhibition at 30 µM is 19.6%.

What does the source list for `CCN(CC)CCNC(=O)c1c(C)[nH]c(/C=C2\C(=O)Nc3ncc(F)cc32)c1C`?
pIC50 (HepG2): 4.82; pIC50 (HT-29): 5.20; pIC50 (MCF7 [2]): < 4.52; pIC50 [3]: < 4.52; inhibition at 30 µM (MCF7 [1]): 70.7%

For `CCOC(=O)c1c(C)[nH]c(/C=C2\C(=O)Nc3ncc(Br)cc32)c1C`, which inhibition at 30 µM (MCF7 [1]) is on record?
Its inhibition at 30 µM is 6.3%.

With `Cc1[nH]c(/C=C2\C(=O)Nc3ncc(Cl)cc32)c(C)c1C(=O)NCC1CCN(C)CC1` as the compound, how does the pIC50 (HepG2) read?
The pIC50 was 4.90.

And the pIC50 (HT-29)?
The pIC50 was 5.25.

And the pIC50 (MCF7 [2])?
Its pIC50 is < 4.52.

What about the pIC50 (A549) of the same compound?
The pIC50 was 4.77.

And the pIC50 [3]?
Its pIC50 is < 4.52.

What about the inhibition at 30 µM (MCF7 [1]) of the same compound?
The inhibition at 30 µM was 88.4%.

What about the pIC50 (HeLa) of the same compound?
The pIC50 was < 4.52.

What about the pIC50 (SK-OV-3) of the same compound?
The pIC50 was 4.79.

For `Cc1[nH]c(/C=C2\C(=O)Nc3ncc(F)cc32)c(C)c1C(=O)NC1CC1`, which inhibition at 30 µM (MCF7 [1]) is on record?
Its inhibition at 30 µM is 6.3%.

With `Cc1[nH]c(/C=C2\C(=O)Nc3ncc(Cl)cc32)c(C)c1C(=O)NCCN1CCCC1` as the compound, how does the pIC50 (HepG2) read?
The pIC50 was 5.10.

And the pIC50 (HT-29)?
The pIC50 was 4.90.

What about the pIC50 (MCF7 [2]) of the same compound?
Its pIC50 is 4.81.

What about the pIC50 (A549) of the same compound?
Its pIC50 is 4.94.

What about the pIC50 [3] of the same compound?
The pIC50 was 4.99.

What about the inhibition at 30 µM (MCF7 [1]) of the same compound?
Its inhibition at 30 µM is 91.3%.

And the pIC50 (HeLa)?
The pIC50 was 4.61.

What about the pIC50 (SK-OV-3) of the same compound?
The pIC50 was 4.79.

For `Cc1[nH]c(/C=C2\C(=O)Nc3ncc(Cl)cc32)c(C)c1C(=O)O`, which inhibition at 30 µM (MCF7 [1]) is on record?
Its inhibition at 30 µM is 15.8%.

With `CCN(CC)CCNC(=O)c1c(C)[nH]c(/C=C2\C(=O)Nc3ncc(Br)cc32)c1C` as the compound, how does the pIC50 (HepG2) read?
Its pIC50 is 4.92.

What about the pIC50 (HT-29) of the same compound?
The pIC50 was 5.40.

And the pIC50 (MCF7 [2])?
The pIC50 was 4.56.

And the pIC50 (A549)?
Its pIC50 is 5.19.

And the pIC50 [3]?
Its pIC50 is 4.81.

And the inhibition at 30 µM (MCF7 [1])?
Its inhibition at 30 µM is 89.7%.

What about the pIC50 (HeLa) of the same compound?
Its pIC50 is 4.57.

And the pIC50 (SK-OV-3)?
Its pIC50 is 4.93.

With `CCOC(=O)c1c(C)[nH]c(/C=C2\C(=O)Nc3ncc(F)cc32)c1C` as the compound, how does the inhibition at 30 µM (MCF7 [1]) read?
Its inhibition at 30 µM is 60.4%.

With `Cc1[nH]c(/C=C2\C(=O)Nc3ncc(Br)cc32)c(C)c1C(=O)NCC1CCN(C)CC1` as the compound, how does the pIC50 (HepG2) read?
Its pIC50 is 4.66.

And the pIC50 (HT-29)?
The pIC50 was 5.25.

What about the pIC50 (MCF7 [2]) of the same compound?
Its pIC50 is < 4.52.

And the pIC50 (A549)?
The pIC50 was 4.82.

What about the pIC50 [3] of the same compound?
Its pIC50 is 4.57.

And the inhibition at 30 µM (MCF7 [1])?
Its inhibition at 30 µM is 82.8%.

And the pIC50 (HeLa)?
Its pIC50 is < 4.52.

And the pIC50 (SK-OV-3)?
Its pIC50 is 4.72.

Which inhibition at 30 µM (MCF7 [1]) does the source give for `Cc1[nH]c(/C=C2\C(=O)Nc3ncc(Cl)cc32)c(C)c1C(=O)NCCN1CCOCC1` here?
Its inhibition at 30 µM is 6%.

For `Cc1[nH]c(/C=C2\C(=O)Nc3ncc(F)cc32)c(C)c1C(=O)NCC(C)O` (configuration not stated), which inhibition at 30 µM (MCF7 [1]) is on record?
Its inhibition at 30 µM is 0%.

With `Cc1[nH]c(/C=C2\C(=O)Nc3ncc(Br)cc32)c(C)c1C(=O)NCCN1CCOCC1` as the compound, how does the inhibition at 30 µM (MCF7 [1]) read?
Its inhibition at 30 µM is 6%.

Which inhibition at 30 µM (MCF7 [1]) does the source give for `Cc1[nH]c(/C=C2\C(=O)Nc3ncc(F)cc32)c(C)c1C(=O)NCCOCc1ccccc1` here?
Its inhibition at 30 µM is 4.1%.

With `Cc1[nH]c(/C=C2\C(=O)Nc3ncc(Br)cc32)c(C)c1C(=O)NC1CC1` as the compound, how does the inhibition at 30 µM (MCF7 [1]) read?
Its inhibition at 30 µM is 5.5%.

Which inhibition at 30 µM (MCF7 [1]) does the source give for `Cc1[nH]c(/C=C2\C(=O)Nc3ncc(F)cc32)c(C)c1C(=O)NCCOc1ccccc1` here?
The inhibition at 30 µM was 2.8%.

Which inhibition at 30 µM (MCF7 [1]) does the source give for `Cc1[nH]c(/C=C2\C(=O)Nc3ncc(Cl)cc32)c(C)c1C(=O)NC1CC1` here?
Its inhibition at 30 µM is 6.2%.

With `CCOC(=O)c1c(C)[nH]c(/C=C2\C(=O)Nc3ncc(Cl)cc32)c1C` as the compound, how does the inhibition at 30 µM (MCF7 [1]) read?
The inhibition at 30 µM was 54.8%.

With `Cc1[nH]c(/C=C2\C(=O)Nc3ncc(Br)cc32)c(C)c1C(=O)NCCN1CCCC1` as the compound, how does the pIC50 (HepG2) read?
Its pIC50 is 5.03.

And the pIC50 (HT-29)?
The pIC50 was 5.35.

And the pIC50 (MCF7 [2])?
Its pIC50 is 4.82.

And the pIC50 (A549)?
Its pIC50 is 5.32.

And the pIC50 [3]?
Its pIC50 is 5.21.

What about the inhibition at 30 µM (MCF7 [1]) of the same compound?
Its inhibition at 30 µM is 86.9%.

What about the pIC50 (HeLa) of the same compound?
Its pIC50 is 4.81.

And the pIC50 (SK-OV-3)?
The pIC50 was 5.29.

With `Cc1[nH]c(/C=C2\C(=O)Nc3ncc(F)cc32)c(C)c1C(=O)NCCN1CCOCC1` as the compound, how does the inhibition at 30 µM (MCF7 [1]) read?
The inhibition at 30 µM was 15.6%.

With `Cc1[nH]c(/C=C2\C(=O)Nc3ncc(F)cc32)c(C)c1C(=O)NCC1CCN(C)CC1` as the compound, how does the pIC50 (HepG2) read?
The pIC50 was 4.67.

And the pIC50 (HT-29)?
The pIC50 was 5.24.

And the pIC50 (MCF7 [2])?
Its pIC50 is < 4.52.

And the pIC50 [3]?
The pIC50 was < 4.52.

And the inhibition at 30 µM (MCF7 [1])?
Its inhibition at 30 µM is 78%.
